Source: patent publication US8822519B2, “Compound with agitation effect on peroxisome proliferator-activated receptor process for its preparation and use thereof” (Zhejiang Hisun Pharmaceutical Co., Ltd., priority 2008, dated 2014)
pEC50: −log10 of the molar value. Blank lines part the entries; values can stand above or below the molecule they belong to.

How the values were obtained:
[1] = tested on: Macaca rhesus model of hyperlipidemia; assay: Macaca rhesus model of hyperlipidemia, hematological indicators and ELISA; format: in vivo; conditions: three months of administration
From the text: Afterwards, efficacy of the medicament of the A-3 was confirmed in the Macaca rhesus model of hyperlipidemia. After three months of administration, blood samples were taken from the femoral vein for the determination of hematological indicators, and the determination of the insulin, apolipoprotein A-1 (apoA-1) and apolipoprotein B-100 (apoB-100) by ELISA.

[2] = tested on: high fat fodder obese C57BL/6J mice; assay: High fat fodder obese mice: levels of blood lipid and blood glucose; format: in vivo; parameters: HDL / GLU / TC / TG: unit not given here; conditions: for GLU / HDL / TC / TG: mean ± s, n 5; for levels of TG and GLU in the sera from the model animals: in words
From the text: 3 week-old male C57BL/6J mice were chosen as experiment animals, 15 of which were randomly selected to feed with a standard fodder, and the remains were allowed to feed with a high fat fodder, with each of the mice being marked by ear-cutting. The body weights and fodder intake of the mice were weighed every week. […] […], the effects of the medicaments on the levels of blood lipid and blood glucose, body weight, and fodder intake in the animals were observed, while a glucose tolerance test was performed to investigate the effects of the medicaments on the glucose tolerance in the animals.

[3] = tested on: high fat fodder obese C57BL/6J mice; assay: High fat fodder obese mice: body weight and food intake; format: in vivo; conditions: for effect on the food intake of the animals / body weight of the animals: in words; for body weight of the animals: Table 4 and FIG. 1
From the text: (§1) 3 week-old male C57BL/6J mice were chosen as experiment animals, 15 of which were randomly selected to feed with a standard fodder, and the remains were allowed to feed with a high fat fodder, with each of the mice being marked by ear-cutting. The body weights and fodder intake of the mice were weighed every week. […] After the administration of the inventive compounds for four weeks, the effects of the medicaments on the levels of blood lipid and blood glucose, body weight, and fodder intake in the animals were observed, while a glucose tolerance test was performed to investigate the effects of the medicaments on the glucose tolerance in the animals.

[4] = tested on: high fat fodder obese C57BL/6J mice; assay: Oral glucose tolerance test in obese mice; format: in vivo; conditions: FIG. 2, in words
Experimental: The abscissa represents blood-sampling time points, 0 min, 30 min, 60 min, 120 min after orally given with glucose; the ordinate represents the corresponding blood glucose level (mmol/L).
as §1

[5] = Pharmacokinetics: plasma concentration-time curve; format: in vivo; conditions: SD rats, gastric lavage, 50, 10 and 2 mg/kg
Experimental: The dosing volume was 10 ml/kg, and blood samples of 0.4-0.5 ml were taken from the vena orbitalis posterior of the waken animals at different time points post-gastric lavage and centrifuged at 5000 rpm for 10 min. 200 μL of plasma sample was precisely measured, then supplemented with 200 μL acetonitrile, vortexed to evenness, left stand for 5 min, and centrifuged (14000 rpm, 5 min). The supernatant was collected and then centrifuged again (14000 rpm, 5 min). The resulting supernatant was gathered and subjected to HPLC injection. Time points for blood sampling were respectively: 0, 0.5, 1, 2, 4, 6, 8, 10, 12, 24, 36, 48 and 72 h, and the peak area for each time point was the average of those obtained from 6 rats at the same time point. Plasma concentrations were calculated and the medicament concentration-time curve was plotted.

Tissue distribution = format: in vivo, SD rats; conditions: distribution in organs, SD rats, 10 mg/kg
Experimental: 18 of SD rats were fasting for 16 h with free access for water, assigned them into 3 groups with 6 animals/group with a female-to-male ratio of 1:1; they were dosed with HS060098 (10 mg/kg), then the animals were sacrificed at 1, 10, and 24 h after dosing, and the heart, liver, spleen, lung, kidney in each animal were removed rapidly. The tainted blood on the surface of the organ was washed off immediately with physiological saline. The tissue from the organ was dissected apart, washed thoroughly, blotted off, weighed, supplemented with physiological saline at 400 mg/ml, homogenized in an ice bath for 1 min, and centrifuged at 3750 rpm for 20 min. 400 μl of the supernatant was pipetted precisely, followed by addition of 40 μl of an inner standard (HS060001 used as the inner standard with a molar concentration of 5 mmol/L), diluted with 3 ml of purified water, vortexed to homogeneity, and loaded onto a column (SPE C18 column was firstly washed with 3 ml of purified water, and sequentially with 3 ml of 10% methanol for activation). The column was rinsed with 3 ml of purified water at 1 ml/min, and then eluted with 3 ml of a elutant (methanol: purified water=9:1). The eluate was collected and blow-dried under a nitrogen flow at 45° C. The residue was dissolved in 400 μl of acetonitrile and then a HPLC insert was placed and followed by injection of the sample.

PPARδ = biological target: T1, PPARδ (Homo sapiens, UniProt Q03181); assay: In vitro screening of nuclear receptor agonist: luciferase reporter gene assay in HepG2 cells; format: cell-based; conditions: RXR/PPARδ luciferase reporter gene, 24 h treatment
T1 construct: expressed in transfected cells; host or cells: HepG2 (human hepatocarcinoma, ATCC)
T1 sequence (Q03181 1-441): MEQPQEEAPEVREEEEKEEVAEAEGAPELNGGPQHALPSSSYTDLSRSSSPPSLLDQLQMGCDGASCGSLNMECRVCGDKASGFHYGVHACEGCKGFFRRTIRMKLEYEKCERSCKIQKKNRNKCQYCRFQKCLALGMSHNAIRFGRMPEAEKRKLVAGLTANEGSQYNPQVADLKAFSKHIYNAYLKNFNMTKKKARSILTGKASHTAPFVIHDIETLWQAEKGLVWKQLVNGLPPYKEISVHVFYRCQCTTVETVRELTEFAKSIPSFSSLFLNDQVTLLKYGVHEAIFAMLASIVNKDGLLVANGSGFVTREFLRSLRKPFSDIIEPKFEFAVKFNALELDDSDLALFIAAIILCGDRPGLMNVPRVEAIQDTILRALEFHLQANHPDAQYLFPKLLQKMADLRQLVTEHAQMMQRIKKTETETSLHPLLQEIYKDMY
T1 sequence (P19793 1-462 partner): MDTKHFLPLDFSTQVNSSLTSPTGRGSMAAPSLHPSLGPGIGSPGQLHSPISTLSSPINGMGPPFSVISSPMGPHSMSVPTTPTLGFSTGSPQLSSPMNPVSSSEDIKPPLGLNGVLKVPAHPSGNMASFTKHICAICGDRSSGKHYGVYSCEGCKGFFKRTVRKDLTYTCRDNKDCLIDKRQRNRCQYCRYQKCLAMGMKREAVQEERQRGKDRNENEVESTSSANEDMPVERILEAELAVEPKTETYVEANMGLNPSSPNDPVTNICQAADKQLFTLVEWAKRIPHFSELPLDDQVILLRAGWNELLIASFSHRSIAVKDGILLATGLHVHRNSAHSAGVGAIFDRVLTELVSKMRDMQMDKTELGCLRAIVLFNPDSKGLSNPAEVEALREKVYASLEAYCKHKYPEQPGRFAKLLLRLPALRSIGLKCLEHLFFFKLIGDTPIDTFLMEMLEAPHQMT
From the text: Using a reporter gene protocol, the screening model for screening a nuclear receptor agonist in a living cell is designed on a basis of the principal that an activated nuclear receptor can activate transcription of its downstream gene. A reporter gene plasmid is constructed, in which the DNA binding sequence for the nuclear receptor (NRE) is inserted upstream of the luciferase gene, so that the expression of the luciferase gene is placed under the control of the nuclear receptor. Then, the reporter gene plasmid and the nuclear receptor are simultaneously transferred into a cell, and the nuclear receptor is activated when the nuclear receptor agonist is present in the cell culture medium. Then the activated receptor is able to induce the expression of the luciferase gene, while the amount of the luciferase can be determined through its luminous substrate. In this way, the intensity of activation by the compound on the nuclear receptor could be known by observing the luminescence intensity.
The specific operation is described as follows:
The experiment reagents: the compounds to be tested (20 mM, in DMSO, stored at −80° C.).
The hepatocarcinoma cell HepG2 (from ATCC, American Type Culture Collection) was cultured in DMEM medium supplemented with 10% heat-inactivated fetal bovine serum (FBS, Invitogen, Grand Island, N.Y., USA) in a T-75 culture bottle (Greiner, Germany) in a incubator at 37° C., the relative humidity of 100%, and 5% CO2. When the cell culture in the culture bottle reached 80-90% confluency, it was digested with 0.25% Trypsin (with EDTA) for 3 min and inoculated into a 96-well cell culture plate at an inoculating density of 2000 cells/100 μl/well.
In the next day, when the cells in the 96-well culture plate grew up to 50-80% confluency, cell transfection was performed. The cell co-transfection system comprised the FuGene6 transfection agent (Roche Molecular Biochemicals, Indianapolis, Ind., U.S.A.) and 60 ng DNA (long of hRXR, 10 ng of pCMV βGal, 10 ng of the nuclear receptor expression plasmid RXR/PPARδ, 30 ng of GFP fluorescence reporter gene plasmid, respectively).
The cell culture medium was discarded immediately at 24 hours post-transfection and replaced by 200 μl of a fresh DMEM medium containing the medicament to be tested (with 10% FBS treated by activated carbon).
24 h after treatment with the medicament, the cells were lysed with a lysis solution (Cell Culture Lysis buffer, Promega) and centrifuged, and the supernatant was collected. The supernatant was treated with a fluorescence detection kit (Promega) and counted by a fluorescence meter (Ascent Fluoroskan FL reader, Thermo Labsystems, Finland), and the relative intensity of the luciferase was determined. For assaying the β-galactosidase activity used in the experiment as the inner reference (the inner reference calibrating for the transfection efficiency), 50 μl of the supernatant was transferred into a fresh microplate and treated with the Promega kit and read at a wavelength of 405 nm from a microplate reader (Bio-tech Instruments Inc., Winooski, Vt., USA) (Sauerberg, P.; Olsen, G. S.; Jeppesen, L.; Mogensen, J. P. et al., J. Med. Chem., 2007, 50, 1495-1503).
The median effective concentration (EC50) of a sample is a concentration at which the sample has 50% pharmacological effect. This value is one of the important parameters for evaluating pharmacological effects of a compound. In the present screening process, the EC50 of a sample was calculated according to the activation of the receptor by the sample at six different concentrations.

[6] = vs hyperlipidemia model control group
[7] = 2 weeks administration, 3.3 mg/kg
[8] = 2 weeks administration, 10 mg/kg
[9] = 4 weeks administration, 3.3 mg/kg
[10] = 4 weeks administration, 10 mg/kg

bioavailability [5]: 86%
Heart (Tissue distribution): 26%
Kidney (Tissue distribution): 9%
Liver (Tissue distribution): 36%
Lung (Tissue distribution): 16%
Spleen (Tissue distribution): 13%
Molecule: 2-(3-methyl-4-(1-(3-(4-methyl-5-oxo-1-(4-trifluoromethyl-phenyl)-4,5-dihydrogen-1H-1,2,4-triazolyl))-benzyloxy)-phenylthio)-acetic acid [Compound A-3]
concentration of apoA-1 ([1]; ELISA, in words): significantly increased
concentration of apoB-100 ([1]; ELISA, in words): significantly decreased
insulin concentration ([1]; ELISA, in words): significantly decreased
high density lipoprotein (HDLc) increased [1, 6]: 67%
low density lipoprotein (LDLc) decreased [1, 6]: 38%
serum total cholesterol (TC) decreased [1, 6]: 45%
GLU [2, 7]: 9.52 ± 1.71
HDL [2, 7]: 3.31 ± 0.21
TC [2, 7]: 3.25 ± 2.76
TG [2, 7]: 0.19 ± 0.12
GLU [2, 8]: 6.54 ± 1.04
HDL [2, 8]: 2.94 ± 1.42
TC [2, 8]: 5.12 ± 0.65
TG [2, 8]: 0.18 ± 0.02
GLU [2, 9]: 9.54 ± 0.71
HDL [2, 9]: 3.1 ± 0.59
TC [2, 9]: 5.11 ± 0.31
TG [2, 9]: 0.07 ± 0.01
GLU [2, 10]: 6.6 ± 1.15
HDL [2, 10]: 2.89 ± 0.28
TC [2, 10]: 4.75 ± 0.57
TG [2, 10]: 0.11 ± 0.07
levels of TG and GLU in the sera from the model animals [2]: significantly decrease
Food intake ([3]; column 1, 3.3 mg/kg): 5.22 g
Food intake ([3]; column 1, 10 mg/kg): 5.46 g
Food intake ([3]; column 2, 3.3 mg/kg): 5.04 g
Food intake ([3]; column 2, 10 mg/kg): 4.84 g
Food intake ([3]; column 3, 3.3 mg/kg): 6.06 g
Food intake ([3]; column 3, 10 mg/kg): 4.94 g
Food intake ([3]; column 4, 3.3 mg/kg): 5.1 g
Food intake ([3]; column 4, 10 mg/kg): 5.28 g
Food intake ([3]; column 5, 3.3 mg/kg): 6.275 g
Food intake ([3]; column 5, 10 mg/kg): 6.9 g
effect on the food intake of the animals [3]: no significant effect
body weight of the animals [3]: significantly decrease
glucose tolerance in the obese animals [4]: significantly improve the glucose tolerance

pEC50 (PPARδ): > 9.00
Molecule: Cc1cc(SCC(=O)O)c(C)cc1OC(c1ccccc1)c1nn(-c2ccc(C(F)(F)F)cc2)c(=O)n1C (stereo not drawn) [Compound A-11, 2-(2,5-dimethyl-4-(1-(3-(4-methyl-5-oxo-1-(4-trifluoromethyl-phenyl)-4,5-dihydrogen-1H-1,2,4-triazolyl))-benzyloxy)-phenylthio)-acetic acid]
GLU [2, 7]: 8.85 ± 2.13
HDL [2, 7]: 3.25 ± 1.29
TG [2, 7]: 0.21 ± 0.08
GLU [2, 8]: 6.51 ± 1.61
HDL [2, 8]: 2.39 ± 1.36
TC [2, 8]: 4.51 ± 0.37
TG [2, 8]: 0.16 ± 0.06
GLU [2, 9]: 7.61 ± 0.5
HDL [2, 9]: 3.83 ± 0.1
TC [2, 9]: 5.84 ± 0.21
TG [2, 9]: 0.12 ± 0.05
GLU [2, 10]: 6.93 ± 0.3
HDL [2, 10]: 2.84 ± 1.09
TC [2, 10]: 5.28 ± 0.48
TG [2, 10]: 0.15 ± 0.05
levels of TG and GLU in the sera from the model animals [2]: significantly decrease
Food intake ([3]; column 1, 3.3 mg/kg): 6.0 g
Food intake ([3]; column 1, 10 mg/kg): 7.2 g
Food intake ([3]; column 2, 3.3 mg/kg): 5.0 g
Food intake ([3]; column 2, 10 mg/kg): 5.2 g
Food intake ([3]; column 3, 3.3 mg/kg): 5.8 g
Food intake ([3]; column 3, 10 mg/kg): 6.0 g
Food intake ([3]; column 4, 3.3 mg/kg): 6.2 g
Food intake ([3]; column 4, 10 mg/kg): 6.4 g
Food intake ([3]; column 5, 3.3 mg/kg): 6.9 g
Food intake ([3]; column 5, 10 mg/kg): 6.9 g
effect on the food intake of the animals [3]: no significant effect
body weight of the animals [3]: significantly decrease
glucose tolerance in the obese animals [4]: significantly improve the glucose tolerance
